Test results: paper PMC4559854 (Proteins, 2009)

How the values were obtained:
[1] = molecular target: PSA (Homo sapiens, UniProt P07288); experiment: Substrate hydrolysis assay of Abz-peptide spots with purified PSA; type: biochemical; details: for hydrolysis / substrate activity (in words): compared with c0
[2] = test system: chymotrypsin; details: selectivity for PSA; cited from earlier work

Sequence of PSA (P07288 25-261): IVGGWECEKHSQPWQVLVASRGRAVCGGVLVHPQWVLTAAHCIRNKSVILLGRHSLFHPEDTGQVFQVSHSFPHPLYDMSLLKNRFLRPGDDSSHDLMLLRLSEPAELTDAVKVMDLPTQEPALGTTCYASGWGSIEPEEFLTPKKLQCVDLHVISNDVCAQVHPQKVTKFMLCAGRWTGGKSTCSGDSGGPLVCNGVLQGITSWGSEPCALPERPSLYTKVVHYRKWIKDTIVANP

Substance | hydrolysis / substrate activity (in words) [1] | increase in the hydrolysis rate compared to c0 ([1]; versus c0) | hydrolysis by chymotrypsin [2]
GSAKLQ [c7] | high activity for PSA hydrolysis | 2 fold | –
GSSKPQ [c4] | almost complete loss of hydrolysis activity | – | –
GSSKYQ [c3] | high substrate activity | – | –
HSSKLQ | – | – | no detectable hydrolysis
